# Experimental data published in PubChem BioAssay (NCI).
#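 Method: 48-hour compound exposure of cells in 96-well plates, five concentrations, linear interpolation of endpoints. GI50: concentration for 50% inhibition of growth. TGI denotes the concentration required for complete inhibition of growth.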
# Key:
# Assay in all cases: growth of human tumour cells (NCI), 48 h
# CCRF-CEM leukemia = test system: CCRF-CEM leukemia
# HCT-15 colon = test system: HCT-15 colon
# HS 578T breast = test system: HS 578T breast
# MALME-3M melanoma = test system: MALME-3M melanoma
# NCI-H226 lung = test system: NCI-H226 lung
# NCI-H23 lung = test system: NCI-H23 lung
# NCI-H522 lung = test system: NCI-H522 lung
# OVCAR-8 ovarian = test system: OVCAR-8 ovarian
Structure (SMILES),GI50 (CCRF-CEM leukemia),TGI (CCRF-CEM leukemia),GI50 (HCT-15 colon),TGI (HCT-15 colon),GI50 (HS 578T breast) [µM],TGI (HS 578T breast) [µM],GI50 (MALME-3M melanoma),TGI (MALME-3M melanoma),GI50 (NCI-H226 lung),TGI (NCI-H226 lung),GI50 (NCI-H23 lung),TGI (NCI-H23 lung),GI50 (NCI-H522 lung),TGI (NCI-H522 lung),GI50 (OVCAR-8 ovarian),TGI (OVCAR-8 ovarian)
Nc1c(C(=O)Nc2ccccn2)sc2nc3c(cc12)CCCCCC3,0.355 µM,> 50 µM,0.254 µM,11.1 µM,0.935,12.4,1.26 µM,13.8 µM,3.15 µM,18.5 µM,2.25 µM,> 50 µM,1.79 µM,> 50 µM,2.21 µM,15.8 µM
CN1CC[C@]23c4c5ccc(O)c4OC2c2[nH]ncc2C[C@H]3[C@H]1C5 (stereo not given in full),–,> 100 µM,–,> 100 µM,–,> 100,–,> 100 µM,–,> 100 µM,–,> 100 µM,–,> 100 µM,–,> 100 µM
CCOC(=O)n1c2ccccc2c(=O)n1CCO,–,> 100 µM,–,> 100 µM,–,> 100,–,> 100 µM,–,> 100 µM,–,> 100 µM,–,> 100 µM,–,> 100 µM
Cc1nn2c(-c3nc4cc(Cl)c(Cl)cc4[nH]3)c(-c3ccc(F)cc3)nc2s1,> 100 µM,> 100 µM,> 100 µM,> 100 µM,2.78,> 29.6,3.23 µM,15 µM,4.01 µM,31.1 µM,21.7 µM,> 61.4 µM,6.35 µM,55.8 µM,2.11 µM,15 µM
Cc1cc(-c2ccco2)cc(C)c1/C=C/c1cncc(-c2nn[nH]n2)c1,> 25 µM,> 25 µM,> 25 µM,> 25 µM,> 25,> 25,> 25 µM,> 25 µM,> 25 µM,> 25 µM,> 25 µM,> 25 µM,> 25 µM,> 25 µM,> 25 µM,> 25 µM
CCN(CC)C(=O)CCCCCn1c2ccccc2c2c3c(c4c5ccccc5[nH]c4c21)C(=O)N(O)C3=O,3.07 µM,21.9 µM,4.07 µM,> 100 µM,5.05,> 100,8.2 µM,65.7 µM,14.1 µM,54.4 µM,3.33 µM,47.3 µM,1.41 µM,3.13 µM,4.1 µM,28.3 µM
Oc1ccc(-c2[nH]c3ccccc3c2-c2nc3ccccc3o2)cc1,4.91 µM,46.2 µM,2.97 µM,13.1 µM,2.47,18.4,7.47 µM,28.3 µM,3.14 µM,15.3 µM,2.26 µM,9.88 µM,2.83 µM,9.65 µM,4.57 µM,20.9 µM
CC(C)c1cc(C(C)C)c(Cl)c(Cl)c1O (tested in a mixture with another compound),–,> 100 µM,–,> 100 µM,–,38.5,–,52.9 µM,–,–,–,> 100 µM,–,35.8 µM,–,76.1 µM
COc1cc2c3c(n(CCCN4CCSCC4)c(=O)c2cc1OC)-c1cc2c(cc1C3=O)OCO2,–,–,> 100 µM,> 100 µM,71.7,> 100,67.5 µM,> 100 µM,59.9 µM,> 100 µM,> 100 µM,> 100 µM,19.9 µM,65.4 µM,> 100 µM,> 100 µM
NCC(Cc1ccccc1)P(=O)(O)O (stereo not given),–,> 100 µM,–,> 100 µM,–,> 100,–,> 100 µM,–,> 100 µM,–,> 100 µM,–,> 100 µM,–,> 100 µM
Cc1ccccc1CNc1c2ccccc2nc2ccccc12,1.97 µM,12.6 µM,1.8 µM,4.02 µM,2.34,5.99,1.66 µM,3.11 µM,2.24 µM,6.17 µM,1.71 µM,4.24 µM,1.61 µM,4.32 µM,2.63 µM,12.2 µM
c1ccc2c(c1)[O][Sn][O]2,1.12 µg/mL,> 150 µg/mL,20.6 µg/mL,> 150 µg/mL,–,–,90.9 µg/mL,> 150 µg/mL,69.5 µg/mL,> 150 µg/mL,21.3 µg/mL,113 µg/mL,2.03 µg/mL,8.78 µg/mL,45.3 µg/mL,> 150 µg/mL
COc1cc(OC)c(/C=C/C(=O)c2c(N)cc(OC)cc2OC)c(OC)c1,1.26 µM,> 100 µM,0.369 µM,> 100 µM,2.42,> 82,–,–,11.2 µM,> 100 µM,0.826 µM,> 100 µM,0.234 µM,0.901 µM,0.712 µM,> 100 µM
CCN(CCNc1ccc(C)c2sc3cc(Cl)ccc3c(=O)c12)CC(C)(C)O,7.5 µM,61 µM,3.3 µM,12 µM,5.01,21.2,2.16 µM,7.3 µM,14 µM,30.7 µM,6.88 µM,24.1 µM,3.82 µM,20 µM,22.5 µM,> 100 µM
Cc1ccc(-c2nc(C(Cl)Cl)nc3cc(C)nn23)cc1,4.82 µM,> 100 µM,1.24 µM,4.61 µM,–,–,–,–,> 100 µM,> 100 µM,0.742 µM,2.75 µM,2.14 µM,> 100 µM,1.67 µM,> 100 µM
O=C(Nc1nc2c(s1)CCc1c-2c(Br)n(Cc2ccccc2)c1Br)c1ccccc1,–,–,12.4 µM,> 100 µM,–,–,2.57 µM,10.2 µM,1.87 µM,9.16 µM,8.03 µM,> 100 µM,4.41 µM,32.5 µM,3.91 µM,> 100 µM
CCN(CC)CCS(=O)(=O)CCNc1ccnc2cc(Cl)ccc12,0.663 µM,> 38.6 µM,2.33 µM,> 38.1 µM,4.07,> 100,2.15 µM,13.3 µM,4.61 µM,> 100 µM,2.1 µM,14.9 µM,0.758 µM,2.11 µM,2.54 µM,> 27.3 µM

Structure (SMILES),GI50 (CCRF-CEM leukemia),TGI (CCRF-CEM leukemia),GI50 (HCT-15 colon),TGI (HCT-15 colon),GI50 (HS 578T breast) [µM],TGI (HS 578T breast) [µM],GI50 (MALME-3M melanoma),TGI (MALME-3M melanoma),GI50 (NCI-H226 lung),TGI (NCI-H226 lung),GI50 (NCI-H23 lung),TGI (NCI-H23 lung),GI50 (NCI-H522 lung),TGI (NCI-H522 lung),GI50 (OVCAR-8 ovarian),TGI (OVCAR-8 ovarian)
COC(=O)c1ccc2c(c1)C(=O)c1c-2n(CCCCl)c(=O)c2cc(OC)c(OC)cc12,> 100 µM,> 100 µM,> 100 µM,> 100 µM,> 100,> 100,> 100 µM,> 100 µM,> 100 µM,> 100 µM,> 100 µM,> 100 µM,> 100 µM,> 100 µM,> 100 µM,> 100 µM
Cc1n(Cc2ccc3ccccc3n2)cc[n+]1Cc1ccc2ccccc2c1,1.07 µM,11.5 µM,20.4 µM,> 75.9 µM,1.18,9.72,0.394 µM,2.37 µM,0.965 µM,8.36 µM,0.935 µM,9.81 µM,0.312 µM,1.58 µM,1.29 µM,11.2 µM
O=CC(O)C(O)C(OC1OC(CO)C(O)C(O)C1O)C(O)CO (stereo not given) (tested in a mixture with another compound),–,–,–,54 µM,–,> 100,–,> 100 µM,–,> 100 µM,–,> 100 µM,–,> 100 µM,–,> 100 µM
O=C(CN(/C=C/C(=O)C(F)(F)F)c1ccccc1)c1ccc(F)cc1,15.8 µM,41.4 µM,25.4 µM,> 100 µM,2.57,8.33,26.7 µM,74.1 µM,19.6 µM,47.8 µM,29.5 µM,> 100 µM,19.2 µM,46.5 µM,47.4 µM,> 100 µM
CCC1=C(c2ccc(OC)cc2)CC[C@]2(CCNC2=O)[C@@H]1C,–,60.8 µM,–,> 88.8 µM,–,76.2,–,67.4 µM,–,> 100 µM,–,> 100 µM,–,56.3 µM,–,> 100 µM
C=CC[PH+](c1ccccc1)c1ccccc1.C=CC[PH+](c1ccccc1)c1ccccc1.[Pt+2].[S-]c1ncccn1.[S-]c1ncccn1,3.17 µM,> 100 µM,2.94 µM,10.4 µM,23,> 100,2.5 µM,10.4 µM,16.6 µM,39.9 µM,17.9 µM,59 µM,2.17 µM,5.78 µM,4.44 µM,> 100 µM
CC(C)C/C(=N\NC(=O)c1ccncc1)c1cc(Cl)ccc1O,0.0864 µM,> 58.5 µM,0.0938 µM,98.9 µM,14.8,> 87.1,1.65 µM,16.7 µM,0.848 µM,22.5 µM,0.449 µM,33.5 µM,0.312 µM,16 µM,0.255 µM,> 49.2 µM
CCOC(=O)C1=C(C)N(Cc2ccc(Cl)cc2Cl)[C@]2(C#N)C(O)=C(Cl)C(Cl)=C(O)[C@]12C#N,18.4 µM,37.3 µM,62 µM,> 100 µM,> 100,> 100,> 100 µM,> 100 µM,> 100 µM,> 100 µM,16.3 µM,80.4 µM,42.5 µM,> 100 µM,73.4 µM,> 100 µM
CC/C(=C(/c1ccc(/C=C/C(=O)O)cc1)c1ccc2[nH]ncc2c1)c1ccc(F)cc1Cl,8.37 µM,30.7 µM,7.45 µM,22 µM,8.63,38.7,18.6 µM,44.9 µM,19.3 µM,47.6 µM,15.4 µM,37.8 µM,9.42 µM,28.2 µM,14.2 µM,37.9 µM
COC(=O)C1=Nc2ccc(F)cc2/C1=C/c1sc(=S)[nH]c1O,0.133 µM,> 100 µM,0.0663 µM,> 100 µM,0.0518,21.6,0.191 µM,29 µM,0.959 µM,10.3 µM,0.408 µM,> 100 µM,0.0363 µM,1.09 µM,0.202 µM,37.7 µM
CN(C)CCS(=O)(=O)Nc1cc(-c2ccc3ncnc(Nc4ccc(F)c(Cl)c4)c3c2)cnc1Cl,0.322 µM,> 37 µM,1.11 µM,4.36 µM,0.32,10.8,0.114 µM,0.666 µM,2.11 µM,> 100 µM,0.577 µM,> 100 µM,–,–,1.77 µM,> 51.7 µM
Cc1ccc(NC(=O)c2ccc(NC3=C(Cl)C(=O)N(Cc4ccccc4)C3=O)cc2)cc1Cl,1.02 µM,3.54 µM,2.25 µM,13.2 µM,10.7,34.9,–,–,8.69 µM,23.5 µM,11.3 µM,29.8 µM,3.73 µM,20.5 µM,9.96 µM,21.5 µM
CCN(CC)CCCNc1c2ccc(Cl)cc2nc2ccc(OC)cc12,0.0473 µM,3.67 µM,0.0345 µM,2.51 µM,2.05,5.54,1.6 µM,3.38 µM,1.84 µM,4.88 µM,–,–,–,–,0.0552 µM,3.44 µM
COc1ncc2cc1NS(=O)(=O)c1cccc(c1)C(=O)NCC1=CC=C(S1)c1ncnc3c1SC2=C3C,0.153 µM,1.16 µM,0.254 µM,1.36 µM,0.0247,0.355,0.302 µM,3.09 µM,0.47 µM,2.6 µM,–,–,0.467 µM,2.61 µM,0.58 µM,15.5 µM
O=[N+]([O-])c1ccc(/C=C\c2ccc3c(c2)OCO3)c([N+](=O)[O-])c1,–,33.7 µM,–,37.3 µM,–,38.5,–,46.5 µM,–,–,–,48.6 µM,–,25.6 µM,–,45.5 µM
CCOC(=O)C1=CSC2=NC3=C(CCC/C3=C\c3cc(OC)c(OC)c(OC)c3)C(c3cc(OC)c(OC)c(OC)c3)N12 (stereo not given),0.47 µM,3.74 µM,–,–,2.47,> 100,–,–,2.4 µM,> 100 µM,–,–,–,–,0.376 µM,> 100 µM
O=C1c2ccccc2-c2c1c1ccc([N+](=O)[O-])cc1c(=O)n2CCCCl,–,–,> 100 µM,> 100 µM,–,–,–,–,–,–,3.52 µM,54.1 µM,86.8 µM,> 100 µM,72.1 µM,> 100 µM
